Activity calls are given as the source filed them. The calls are words filed in the database; no cut-off is given here.
Experiments:
[1] = Metabolic stability in mouse liver microsomes S9 fraction assessed as parent compound remaining at 5 uM incubated for 60 mins in presence of NADPH by liquid chromatography (reference value: 100 %); type: ADME, Microsome S9 fraction; details: read-out: Stability
Trypanosoma cruzi [2] = assay: Antitrypanosomal activity against Trypanosoma cruzi Y strain infected in acute CD Swiss Webster mouse model assessed as reduction in parasitemia at 12.5 to 25 mg/kg, po qd administered for 5 consecutive days by light microscopy; type: functional, organism-based; details: dose 12.5-25 mg/kg, time 5.0 day
[3] = Cytotoxicity against Swiss mouse peritoneal macrophages assessed as reduction in cell viability measured after 5 days by microscopic analysis; type: toxicity, cell-based, Macrophage; details: time 5 day
Trypanosoma cruzi [4] = assay: Antitrypanosomal activity against bloodstream extracellular Trypanosoma cruzi Y strain trypomastigotes assessed as reduction in parasite growth incubated for 96 hrs by light microscope; type: functional, organism-based
[5] = Metabolic stability in human liver microsomes S9 fraction assessed as parent compound remaining at 5 uM incubated for 30 min in presence of UGT by liquid chromatography (reference value: 100 %); type: ADME, Microsome S9 fraction; details: read-out: Stability
[6] = Toxicity in early curative hamster model assessed as clinical symptoms of toxicity at 50 mg/kg, po qd for 4 days; type: organism-based, Cricetulus griseus; details: chinese hamster, in vivo, 96 h, time 4 day
Leishmania infantum [7] = assay: Antileishmanial activity against extracellular Leishmania infantum […] PMM promastigotes assessed as reduction in parasite growth incubated for 96 hrs by light microscopy; type: functional, organism-based
[8] = Metabolic stability in hamster liver microsomes S9 fraction assessed as parent compound remaining at 5 uM incubated for 30 min in presence of UGT by liquid chromatography (reference value: 100 %); type: ADME, Cricetulus griseus, Microsome S9 fraction; details: chinese hamster, read-out: Stability
[9] = Toxicity in early curative hamster model assessed as weight loss at 50 mg/kg, po qd for 4 days measured on day 2; type: organism-based, Cricetulus griseus; details: chinese hamster, in vivo, 96 h, time 4 day
[10] = Metabolic stability in hamster liver microsomes S9 fraction assessed as parent compound remaining at 5 uM incubated for 60 min in presence of UGT by liquid chromatography (reference value: 100 %); type: ADME, Cricetulus griseus, Microsome S9 fraction; details: chinese hamster, 1 h
Trypanosoma cruzi [11] = assay: Antitrypanosomal activity against Trypanosoma cruzi Y strain infected in acute CD Swiss Webster mouse model assessed as reduction in parasitemia at 50 mg/kg, po qd for 5 consecutive days by light microscopy relative to control; type: functional; design: scale not given: the % may be the effect or the level left; details: time 5 day
[12] = Metabolic stability in mouse liver microsomes S9 fraction assessed as parent compound remaining at 5 uM incubated for 15 min in presence of UGT by liquid chromatography (reference value: 100 %); type: ADME, Microsome S9 fraction; details: read-out: Stability
[13] = Acute toxicity in acute CD Swiss Webster mouse model infected with Trypanosoma cruzi Y strain assessed as survival rate at 25 mg/kg, po administered for 5 consecutive days measured after 55 days post treatment (reference value: 100 %); type: organism-based; details: in vivo, time 55 day
[14] = Acute toxicity in acute CD Swiss Webster mouse model infected with Trypanosoma cruzi Y strain assessed as survival rate at 12.5 mg/kg, po administered for 5 consecutive days measured after 55 days post treatment (reference value: 100 %); type: organism-based; details: in vivo, time 55 day
[15] = Selectivity index, ratio of CC50 for Swiss mouse peritoneal macrophages to EC50 for antileishmanial activity against intracellular Leishmania infantum MHOM/MA(BE)/67 amastigotes infected in Swiss mouse peritoneal macrophages; type: toxicity, cell-based; details: read-out: Selectivity Index
[16] = Metabolic stability in mouse liver microsomes S9 fraction assessed as parent compound remaining at 5 uM incubated for 15 mins in presence of NADPH by liquid chromatography (reference value: 100 %); type: ADME, Microsome S9 fraction; details: read-out: Stability
[17] = Metabolic stability in hamster liver microsomes S9 fraction assessed as parent compound remaining at 5 uM incubated for 60 min in presence of NADPH by liquid chromatography (reference value: 100 %); type: ADME, Cricetulus griseus, Microsome S9 fraction; details: chinese hamster, read-out: Stability
[18] = Metabolic stability in hamster liver microsomes S9 fraction assessed as parent compound remaining at 5 uM incubated for 15 min in presence of UGT by liquid chromatography (reference value: 100 %); type: ADME, Cricetulus griseus, Microsome S9 fraction; details: chinese hamster, read-out: Stability
[19] = Metabolic stability in mouse liver microsomes S9 fraction assessed as parent compound remaining at 5 uM incubated for 30 mins in presence of NADPH by liquid chromatography (reference value: 100 %); type: ADME, Microsome S9 fraction; details: read-out: Stability
[20] = Metabolic stability in human liver microsomes S9 fraction assessed as parent compound remaining at 5 uM incubated for 30 min in presence of NADPH by liquid chromatography (reference value: 100 %); type: ADME, Microsome S9 fraction; details: read-out: Stability
[21] = Metabolic stability in hamster liver microsomes S9 fraction assessed as parent compound remaining at 5 uM incubated for 15 min in presence of NADPH by liquid chromatography (reference value: 100 %); type: ADME, Cricetulus griseus, Microsome S9 fraction; details: chinese hamster, read-out: Stability
[22] = Metabolic stability in mouse liver microsomes S9 fraction assessed as parent compound remaining at 5 uM incubated for 60 min in presence of UGT by liquid chromatography (reference value: 100 %); type: ADME, Microsome S9 fraction; details: read-out: Stability
[23] = Metabolic stability in human liver microsomes S9 fraction assessed as parent compound remaining at 5 uM incubated for 60 min in presence of UGT by liquid chromatography (reference value: 100 %); type: ADME, Microsome S9 fraction; details: read-out: Stability
Trypanosoma cruzi [24] = assay: Antitrypanosomal activity against intracellular Trypanosoma cruzi Tulahuen amastigotes expressing CL2 beta-galactosidase in human MRC5 cells assessed as parasite growth inhibition using chlorophenol red beta-D-galactopyranoside as substrate treated for 7 days by spectrophotometry; type: functional, organism-based; details: MRC5, 168 h
[25] = Metabolic stability in mouse liver microsomes S9 fraction assessed as parent compound remaining at 5 uM incubated for 30 min in presence of UGT by liquid chromatography (reference value: 100 %); type: ADME, Microsome S9 fraction; details: read-out: Stability
[26] = Selectivity index, ratio of CC50 for human MRC-5 cells to EC50 for antitrypanosomal activity against intracellular Trypanosoma cruzi Tulahuen amastigotes expressing CL2 beta-galactosidase in human MRC5 cells; type: toxicity, cell-based; details: read-out: Selectivity Index
Leishmania infantum [27] = assay: Antileishmanial activity against extracellular Leishmania infantum LEM3323-C14 promastigotes assessed as reduction in parasite growth incubated for 96 hrs by light microscope; type: functional, organism-based; details: LEM3323-C14, 96 h
[28] = Acute toxicity in acute CD Swiss Webster mouse model infected with Trypanosoma cruzi Y strain assessed as weight loss at 12.5 to 50 mg/kg, po qd administered for 5 consecutive days measured once a week; type: organism-based; details: in vivo, 120 h, dose 12.5-50 mg/kg, time 5 day
Trypanosoma cruzi [29] = assay: Antitrypanosomal activity against Trypanosoma cruzi Y strain infected in acute CD Swiss Webster mouse model assessed as reduction in parasitemia at 12.5 mg/kg, po qd for 5 consecutive days by light microscopy relative to control; type: functional; design: scale not given: the % may be the effect or the level left; details: time 5 day
[30] = Metabolic stability in human liver microsomes S9 fraction assessed as parent compound remaining at 5 uM incubated for 15 min in presence of NADPH by liquid chromatography (reference value: 100 %); type: ADME, Microsome S9 fraction; details: read-out: Stability
Leishmania infantum [31] = assay: Antileishmanial activity against extracellular Leishmania infantum […] MIL5C13 promastigotes assessed as reduction in parasite growth incubated for 96 hrs by light microscopy; type: functional, organism-based
[32] = Metabolic stability in human liver microsomes S9 fraction assessed as parent compound remaining at 5 uM incubated for 60 min in presence of NADPH by liquid chromatography (reference value: 100 %); type: ADME, Microsome S9 fraction; details: read-out: Stability
Trypanosoma cruzi [33] = assay: Antitrypanosomal activity against Trypanosoma cruzi Y strain infected in acute CD Swiss Webster mouse model assessed as reduction in parasitemia at 25 mg/kg, po qd for 5 consecutive days by light microscopy relative to control; type: functional; design: scale not given: the % may be the effect or the level left; details: time 5 day
[34] = Acute toxicity in acute CD Swiss Webster mouse model infected with Trypanosoma cruzi Y strain assessed as maximum tolerated dose administered orally once daily for 5 consecutive days; details: in vivo, route po, time 5 day
[35] = Toxicity in early curative hamster model assessed as severe toxicity at 50 mg/kg, po qd for 4 days measured on day 5; type: organism-based, Cricetulus griseus; details: chinese hamster, in vivo, 120 h, time 5 day
Leishmania infantum [36] = assay: Antileishmanial activity against intracellular Leishmania infantum MHOM/MA(BE)/67 amastigotes infected in Swiss mouse peritoneal macrophages assessed as parasite growth inhibition incubated for 5 days by giemsa staining based microscopic analysis; type: functional, organism-based; details: MHOM/MA(BE)/67, Macrophage, 120 h
[37] = Metabolic stability in human liver microsomes S9 fraction assessed as parent compound remaining at 5 uM incubated for 15 min in presence of UGT by liquid chromatography (reference value: 100 %); type: ADME, Microsome S9 fraction; details: read-out: Stability
[38] = Metabolic stability in hamster liver microsomes S9 fraction assessed as parent compound remaining at 5 uM incubated for 30 min in presence of NADPH by liquid chromatography (reference value: 100 %); type: ADME, Cricetulus griseus, Microsome S9 fraction; details: chinese hamster, read-out: Stability
[39] = Toxicity in acute CD Swiss Webster mouse model infected with Trypanosoma cruzi Y strain assessed as animal survival at 50 mg/kg, po qd for 5 consecutive days measured daily for upto 30 days post-treatment; type: organism-based; details: in vivo, 720 h, time < 30 day
[40] = Cytotoxicity against human MRC5 fibroblast cells assessed as reduction in cell viability measured after 3 days by fluorometry; type: toxicity, cell-based; details: time 3 day

Which remaining at 1 h, 5 µM [1] does the source give for `CNc1ncnc2c1ccn2[C@@H]1O[C@H](CO)[C@@H](O)[C@H]1O` here?
Its remaining at 1 h, 5 µM is 107%.

What about the Activity (Trypanosoma cruzi [2]) of the same compound?
Its Activity is “Active”.

What about the CC50 at 120 h [3] of the same compound?
Its CC50 at 120 h is greater than 64 µM.

And the EC50 (Trypanosoma cruzi [4])?
The EC50 was greater than 24 µM.

What about the remaining at 0.5 h, 5 µM [5] of the same compound?
Its remaining at 0.5 h, 5 µM is 104%.

And the Activity [6]?
The Activity was “Toxic”.

And the EC50 (Leishmania infantum [7])?
The EC50 was 2 µM.

What about the remaining at 0.5 h, 5 µM [8] of the same compound?
The remaining at 0.5 h, 5 µM was 102%.

And the Activity [9]?
The Activity was “Toxic”.

What about the Stability [10] of the same compound?
The Stability was 116%.

What about the Activity (Trypanosoma cruzi [11]) of the same compound?
The Activity was 96%.

What about the remaining at 0.25 h, 5 µM [12] of the same compound?
Its remaining at 0.25 h, 5 µM is 103%.

What about the survival at 1320 h [13] of the same compound?
Its survival at 1320 h is 66.7%.

And the survival at 1320 h [14]?
The survival at 1320 h was 83.3%.

And the selectivity ratio [15]?
The selectivity ratio was greater than 131.

What about the remaining at 0.25 h, 5 µM [16] of the same compound?
The remaining at 0.25 h, 5 µM was 96%.

What about the remaining at 1 h, 5 µM [17] of the same compound?
The remaining at 1 h, 5 µM was 103%.

What about the remaining at 0.25 h, 5 µM [18] of the same compound?
The remaining at 0.25 h, 5 µM was 102%.

What about the remaining at 0.5 h, 5 µM [19] of the same compound?
The remaining at 0.5 h, 5 µM was 96%.

And the remaining at 0.5 h, 5 µM [20]?
Its remaining at 0.5 h, 5 µM is 95%.

And the remaining at 0.25 h, 5 µM [21]?
Its remaining at 0.25 h, 5 µM is 97%.

What about the remaining at 1 h, 5 µM [22] of the same compound?
The remaining at 1 h, 5 µM was 98%.

And the remaining at 1 h, 5 µM [23]?
The remaining at 1 h, 5 µM was 104%.

And the EC50 (Trypanosoma cruzi [24])?
The EC50 was 0.45 µM.

What about the remaining at 0.5 h, 5 µM [25] of the same compound?
The remaining at 0.5 h, 5 µM was 105%.

What about the selectivity ratio [26] of the same compound?
Its selectivity ratio is greater than 142.

And the EC50 (Leishmania infantum [27])?
The EC50 was 8 µM.

And the Activity [28]?
The Activity was “Toxic”.

What about the Activity (Trypanosoma cruzi [29]) of the same compound?
The Activity was 75%.

What about the remaining at 0.25 h, 5 µM [30] of the same compound?
Its remaining at 0.25 h, 5 µM is 108%.

And the EC50 (Leishmania infantum [31])?
Its EC50 is 2.38 µM.

And the remaining at 1 h, 5 µM [32]?
Its remaining at 1 h, 5 µM is 105%.

What about the Activity (Trypanosoma cruzi [33]) of the same compound?
The Activity was 89%.

And the MTD at 120 h [34]?
Its MTD at 120 h is 12.5 mg/kg/day.

What about the Activity [35] of the same compound?
Its Activity is “Toxic”.

And the EC50 (Leishmania infantum [36])?
The EC50 was 0.49 µM.

And the remaining at 0.25 h, 5 µM [37]?
The remaining at 0.25 h, 5 µM was 99%.

And the remaining at 0.5 h, 5 µM [38]?
Its remaining at 0.5 h, 5 µM is 93%.

And the Survival [39]?
The Survival was “Toxic”.

What about the CC50 at 72 h [40] of the same compound?
Its CC50 at 72 h is greater than 64 µM.

Reference: ChEMBL document CHEMBL5131491, “N6-modification of 7-Deazapurine nucleoside analogues as Anti-Trypanosoma cruzi and anti-Leishmania agents: Structure-activity relationship exploration and In vivo evaluation” (Eur J Med Chem, 2022)
